Among the targets are Cytochrome P450 3A4 (Homo sapiens, UniProt P08684); Cytochrome P450 2C9 (Homo sapiens, UniProt P11712); Cytochrome P450 2D6 (Homo sapiens, UniProt P10635).
Data set [1] addresses T1, Corticotropin-releasing factor receptor 2/Corticotropin-releasing factor-binding protein (Homo sapiens, UniProt P24387+Q13324).
T1 sequence (Q13324 whole entry): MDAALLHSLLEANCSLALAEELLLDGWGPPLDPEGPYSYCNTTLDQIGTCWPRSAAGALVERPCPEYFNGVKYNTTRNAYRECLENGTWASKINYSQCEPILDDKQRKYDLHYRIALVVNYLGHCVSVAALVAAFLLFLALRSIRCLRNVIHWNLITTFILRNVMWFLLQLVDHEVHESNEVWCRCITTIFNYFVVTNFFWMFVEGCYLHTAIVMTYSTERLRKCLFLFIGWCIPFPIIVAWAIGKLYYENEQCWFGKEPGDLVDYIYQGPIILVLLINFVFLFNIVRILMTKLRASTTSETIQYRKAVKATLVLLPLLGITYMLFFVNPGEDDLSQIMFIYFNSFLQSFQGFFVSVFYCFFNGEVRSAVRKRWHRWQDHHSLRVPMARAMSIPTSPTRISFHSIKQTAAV
T1 sequence (P24387 whole entry): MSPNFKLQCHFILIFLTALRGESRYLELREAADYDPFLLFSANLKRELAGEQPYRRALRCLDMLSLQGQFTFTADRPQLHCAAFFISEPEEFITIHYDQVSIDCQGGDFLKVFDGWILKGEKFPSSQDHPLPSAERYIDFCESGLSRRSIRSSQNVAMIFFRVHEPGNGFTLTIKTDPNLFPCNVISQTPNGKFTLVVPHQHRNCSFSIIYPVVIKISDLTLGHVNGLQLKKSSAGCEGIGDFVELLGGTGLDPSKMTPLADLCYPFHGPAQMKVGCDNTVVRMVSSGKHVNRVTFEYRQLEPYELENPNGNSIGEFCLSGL
The data set can be described thus: Dose Response confirmation of uHTS hits for small molecule antagonists of the CRF-binding protein and CRF-R2 receptor complex. Format: functional. Particulars: read-out: IC50_Mean.

For data set [2], the target named is T1, Corticotropin-releasing factor receptor 2/Corticotropin-releasing factor-binding protein. The data set can be described thus: activators of CRF receptor 2 with binding protein – uHTS hits, confirmation (AID 602473). It counts as functional. Particulars: read-out: EC50_Mean.
For a further data set, the target named is Cytochrome P450 2C19 (Homo sapiens, UniProt P33261). The data set can be described thus: Cytochrome panel assay with activity outcomes. Panel member name: p450-cyp2c19 Compounds with AC50 equal or less than 10 uM are considered active. It counts as functional.
Sequence of Cytochrome P450 2C19 (P33261 whole entry): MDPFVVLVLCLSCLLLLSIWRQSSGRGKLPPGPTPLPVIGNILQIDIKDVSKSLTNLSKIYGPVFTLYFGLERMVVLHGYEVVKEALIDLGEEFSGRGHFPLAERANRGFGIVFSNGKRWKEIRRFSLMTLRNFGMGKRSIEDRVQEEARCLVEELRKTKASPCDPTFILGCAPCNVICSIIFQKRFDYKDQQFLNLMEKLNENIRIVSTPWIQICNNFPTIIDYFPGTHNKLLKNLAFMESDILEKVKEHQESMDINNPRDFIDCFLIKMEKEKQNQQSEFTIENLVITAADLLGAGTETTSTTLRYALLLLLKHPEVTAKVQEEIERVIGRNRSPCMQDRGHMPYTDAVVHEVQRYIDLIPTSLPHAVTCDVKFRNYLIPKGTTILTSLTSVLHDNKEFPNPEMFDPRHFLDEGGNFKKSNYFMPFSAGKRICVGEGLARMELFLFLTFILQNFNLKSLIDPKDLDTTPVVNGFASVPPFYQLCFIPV
In another data set the target is T2, Cytochrome P450 1A2 (Homo sapiens, UniProt P05177).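 Also: PubChem cytochrome P450 panel assay, CYP1A2 panel member.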
T2 sequence (P05177 whole entry): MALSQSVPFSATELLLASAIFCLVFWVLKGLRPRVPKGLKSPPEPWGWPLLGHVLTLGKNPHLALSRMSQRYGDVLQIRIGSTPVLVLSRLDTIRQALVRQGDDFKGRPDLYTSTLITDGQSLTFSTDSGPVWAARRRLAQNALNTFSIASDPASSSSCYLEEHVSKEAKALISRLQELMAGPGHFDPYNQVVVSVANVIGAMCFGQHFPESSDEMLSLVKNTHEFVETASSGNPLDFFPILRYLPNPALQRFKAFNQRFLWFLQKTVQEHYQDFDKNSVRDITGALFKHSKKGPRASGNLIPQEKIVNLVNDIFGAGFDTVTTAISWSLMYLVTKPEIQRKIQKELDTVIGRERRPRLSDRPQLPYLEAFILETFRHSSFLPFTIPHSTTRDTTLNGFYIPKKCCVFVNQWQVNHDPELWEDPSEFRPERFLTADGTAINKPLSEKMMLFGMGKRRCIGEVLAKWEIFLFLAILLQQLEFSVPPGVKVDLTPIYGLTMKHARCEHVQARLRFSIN

Our source for the IC50, EC50 and AC50 values is ChEMBL document CHEMBL1201862, “PubChem BioAssay data set” (2004).

Each structure is given as a SMILES string. Activity calls are given as the source filed them.

Sequence of Cytochrome P450 2C9 (P11712 whole entry): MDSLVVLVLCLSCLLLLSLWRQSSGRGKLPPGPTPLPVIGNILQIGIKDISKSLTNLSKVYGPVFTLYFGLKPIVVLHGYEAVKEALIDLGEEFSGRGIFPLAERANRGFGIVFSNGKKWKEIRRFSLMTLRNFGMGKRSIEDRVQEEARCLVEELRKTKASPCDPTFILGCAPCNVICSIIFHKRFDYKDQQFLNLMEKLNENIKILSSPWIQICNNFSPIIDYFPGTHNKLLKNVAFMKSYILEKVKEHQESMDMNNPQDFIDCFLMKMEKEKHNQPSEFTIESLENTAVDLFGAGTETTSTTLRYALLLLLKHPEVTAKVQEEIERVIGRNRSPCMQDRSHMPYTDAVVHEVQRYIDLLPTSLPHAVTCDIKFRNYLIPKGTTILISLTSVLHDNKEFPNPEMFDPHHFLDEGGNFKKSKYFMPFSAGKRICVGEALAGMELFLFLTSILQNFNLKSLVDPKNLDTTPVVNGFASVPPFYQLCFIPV
Sequence of Cytochrome P450 3A4 (P08684 whole entry): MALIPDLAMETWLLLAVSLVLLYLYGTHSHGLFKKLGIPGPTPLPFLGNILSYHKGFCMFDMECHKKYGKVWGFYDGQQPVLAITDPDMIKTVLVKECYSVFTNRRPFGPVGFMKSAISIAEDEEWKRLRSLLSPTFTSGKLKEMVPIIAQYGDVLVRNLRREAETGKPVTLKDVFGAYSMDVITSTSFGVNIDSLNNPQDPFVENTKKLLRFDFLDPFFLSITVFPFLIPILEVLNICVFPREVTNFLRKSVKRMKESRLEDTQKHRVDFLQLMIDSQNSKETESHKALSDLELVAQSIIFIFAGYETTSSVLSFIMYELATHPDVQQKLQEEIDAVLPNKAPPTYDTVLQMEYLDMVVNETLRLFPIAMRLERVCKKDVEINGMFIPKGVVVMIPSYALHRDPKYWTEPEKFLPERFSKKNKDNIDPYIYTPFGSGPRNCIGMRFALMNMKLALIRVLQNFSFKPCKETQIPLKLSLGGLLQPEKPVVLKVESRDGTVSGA
Sequence of Cytochrome P450 2D6 (P10635 whole entry): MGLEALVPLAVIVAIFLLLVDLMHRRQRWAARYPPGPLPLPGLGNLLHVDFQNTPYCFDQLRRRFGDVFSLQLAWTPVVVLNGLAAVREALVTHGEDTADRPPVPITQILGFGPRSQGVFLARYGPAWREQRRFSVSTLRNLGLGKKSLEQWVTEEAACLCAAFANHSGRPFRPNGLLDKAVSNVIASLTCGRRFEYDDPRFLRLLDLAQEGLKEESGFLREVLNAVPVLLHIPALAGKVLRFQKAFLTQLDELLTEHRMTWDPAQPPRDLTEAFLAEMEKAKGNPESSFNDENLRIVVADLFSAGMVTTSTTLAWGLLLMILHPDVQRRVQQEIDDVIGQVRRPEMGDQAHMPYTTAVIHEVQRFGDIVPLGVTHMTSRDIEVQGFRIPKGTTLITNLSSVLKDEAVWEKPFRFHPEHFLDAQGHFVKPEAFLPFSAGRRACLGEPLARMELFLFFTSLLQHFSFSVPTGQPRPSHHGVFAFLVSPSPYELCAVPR

As for `O=[N+]([O-])/C(C(Cl)=C(Cl)Cl)=C(/NC1CC1)Sc1ccccc1`, the IC50 in data set [1] is > 47.1 µM (inactive). Further, the EC50 in data set [2] is > 53 µM (inactive).

For the molecule `CS(=O)(=O)Nc1nc2n(n1)C(c1ccccc1)CC(c1ccccc1)N2` (centres undefined), the IC50 in data set [1] is > 47.1 µM (inactive). Moreover, the EC50 in data set [2] is > 53 µM (inactive).

By AC50 is commonly meant the midpoint of the concentration-response curve, whichever way the signal moves. For the molecule `CC[C@H]1C2=C3C(CC[C@H]4C(OC)OC[C@](C)([C@@H]34)N(C(=O)OC(C)(C)C)C2)C(CO)C1CO` (some centres undefined), the AC50 result on Cytochrome P450 2C19 was “inconclusive”; on Cytochrome P450 1A2, 12.6 µM (inconclusive); on Cytochrome P450 3A4 it was 10 µM (inconclusive); at Cytochrome P450 2C9, 25.1 µM (inconclusive).

With `Cc1ccc(C)c(NC(=S)Nc2ncccc2C)c1`, the IC50 in data set [1] is > 47.1 µM (inactive). Further, in data set [2], the EC50 is > 53 µM (inactive).

For `COc1ccccc1C1C(C(=O)c2sc(C)nc2C)=C(O)C(=O)N1CCN1CCOCC1` (centres undefined), the IC50 in data set [1] is > 47.1 µM (inactive). Moreover, the EC50 in data set [2] was > 53 µM (inactive).

For the molecule `CCCP(=O)(CC(=O)N(CC)CC)c1ccccc1` (centres undefined), in data set [1], the IC50 was > 47.1 µM (inactive). Besides, the EC50 in data set [2] is > 53 µM (inactive).

`Cn1c(=O)n(Cc2ccccc2Cl)c2ccccc21`: the IC50 in data set [1] was > 47.1 µM (inactive). In data set [2], the EC50 was > 53 µM (inactive).

For the molecule `COc1ccc(S(=O)(=O)N2CCCC(C(=O)NCc3ccncc3)C2)cc1` (centres undefined), the IC50 in data set [1] was > 47.1 µM (inactive). Also, the EC50 in data set [2] was > 53 µM (inactive).

With `CSc1ncc(Cl)c(C(=O)Nc2ccc(S(=O)(=O)N3CCOCC3)cc2)n1`, the IC50 in data set [1] is > 47.1 µM (inactive). In data set [2], the EC50 was > 53 µM (inactive).

As for `COc1ccc(C2=C(C#N)C(=O)OC2)cc1`, the AC50 at Cytochrome P450 3A4 was 31.6 µM (inconclusive); on Cytochrome P450 2C9, 39.8 µM (inconclusive).

`CCOC(=O)c1cc(=O)cc(C(=O)OCC)o1`: the IC50 in data set [1] is > 47.1 µM (inactive). For the same molecule, in data set [2], the EC50 is > 53 µM (inactive).

Take `CCCn1c(=N)c(S(=O)(=O)c2ccccc2)cc2c(=O)n3ccccc3nc21`: the IC50 in data set [1] is > 47.1 µM (inactive). For the same molecule, the EC50 in data set [2] was > 53 µM (inactive).

Take `Nc1ccc(N=Nc2ccccc2)cc1[N+](=O)[O-]`: the IC50 in data set [1] is > 47.1 µM (inactive). The EC50 in data set [2] is > 53 µM (inactive).

Consider `O=c1cc(CN2CCN(Cc3ccccc3)CC2)c2cc(O)ccc2o1`, for which the IC50 in data set [1] is > 47.1 µM (inactive). Besides, the EC50 in data set [2] was > 53 µM (inactive).

For `COC(=O)C(C)Sc1nc(O)c2cnn(-c3ccc(C)cc3)c2n1` (centres undefined), the half-maximal activity concentration (AC50) was 7.94 µM (inconclusive) at Cytochrome P450 2C19 (read-out: AC50), 14.1 µM (inconclusive) at Cytochrome P450 3A4 and 3.55 µM (inconclusive) on Cytochrome P450 2C9.

As for `COc1cccc(/C(C)=N/NS(=O)(=O)c2ccc(Cl)cc2)c1`, in data set [1], the IC50 is > 47.1 µM (inactive). Moreover, the EC50 in data set [2] is > 53 µM (inactive).

Consider `CC1=C(C(=O)OCc2ccccc2)C(c2ccc3ccccc3c2)NC(=O)N1CCCCCC(=O)O` (centres undefined), for which the AC50 at Cytochrome P450 2C19 (read-out: AC50) is 39.8 µM (inconclusive); on Cytochrome P450 2D6, 39.8 µM (inconclusive); at Cytochrome P450 1A2 it was 20 µM (inconclusive); at Cytochrome P450 3A4 it was 10 µM (inconclusive).
